According to patent publication US6117841A, “Substituted peptidylamine calcium channel blockers” (Warner-Lambert Company, priority 1999, dated 2000):
Where two headings read alike, the source gives them in different places.

Assays:
[1] = test system: DBA/2 mice; experiment: In vivo anticonvulsant activity, sound-induced tonic seizures in DBA/2 mice; conditions: tested 15 or 45 minutes after injection; for DBA/2 mice % Protection (10 mg/kg): 10 mg/kg intravenous; for DBA/2 mice % Protection dose @ 30 mg/kg: 30 mg/kg intravenous
Description: A compound of the present invention was dissolved in water using 10% (weight/volume) Emulphor (GAF Corp., Wayne, N.J.) surfactant. Substances were administered by intravenous injection into the retro-orbital venous sinus. All testing was performed 15 minutes or 45 minutes after drug injection. All the male mice, 3-4 weeks old were obtained from Jackson Laboratories Bar Harbour, Me. Immediately before anticonvulsant testing, mice were placed upon a wire mesh, 4 inches square suspended from a steel rod. The square was slowly inverted through 180 degrees and mice observed for 30 seconds. Any mouse falling from the wire mesh was scored as ataxia.
Mice were placed into an enclosed acrylic plastic chamber (21 cm height, approximately 30 cm diameter) with a high-frequency speaker (4 cm diameter) in the center of the top lid. An audio signal generator (Protek model B-810) was used to produce a continuous sinusoidal tone that was swept linearly in frequency between 8 kHz and 16 kHz once each 10 msec. The average sound pressure level (SPL) during stimulation was approximately 100 dB at the floor of the chamber. Mice were placed within the chamber and allowed to acclimatize for 1 minute. DBA/2 mice in the vehicle-treated group responded to the sound stimulus (applied until tonic extension occurred, or for a maximum of 60 sec) with a characteristic seizure sequence consisting of wild running followed by clonic seizures, and later by tonic extension, and finally by respiratory arrest and death in 80% or more of the mice. In vehicle-treated mice, the entire sequence of seizures to respiratory arrest lasts approximately 15-20 seconds.
The incidence of all the seizure phases in the drug-treated and vehicle-treated mice was recorded, and the occurrence of tonic seizures were used for calculatine anticonvulsant ED50 values by probit analysis. Mice were used only once for testing at each time and dose point.

[2] = target: T1, N-type Ca^2+ Channel (Homo sapiens, UniProt Q00975); experiment: Measurement of N-type Ca2+ channel blocking potencies in IMR-32 cells using the fluorescent Ca2+ indicator Indo-1; type: cell-based; conditions: for IC50: IMR-32 cells
T1 construct: host or cells: IMR-32 cells differentiated with dibutyryl cAMP and bromodeoxyuridine
T1 sequence (Q00975 whole entry): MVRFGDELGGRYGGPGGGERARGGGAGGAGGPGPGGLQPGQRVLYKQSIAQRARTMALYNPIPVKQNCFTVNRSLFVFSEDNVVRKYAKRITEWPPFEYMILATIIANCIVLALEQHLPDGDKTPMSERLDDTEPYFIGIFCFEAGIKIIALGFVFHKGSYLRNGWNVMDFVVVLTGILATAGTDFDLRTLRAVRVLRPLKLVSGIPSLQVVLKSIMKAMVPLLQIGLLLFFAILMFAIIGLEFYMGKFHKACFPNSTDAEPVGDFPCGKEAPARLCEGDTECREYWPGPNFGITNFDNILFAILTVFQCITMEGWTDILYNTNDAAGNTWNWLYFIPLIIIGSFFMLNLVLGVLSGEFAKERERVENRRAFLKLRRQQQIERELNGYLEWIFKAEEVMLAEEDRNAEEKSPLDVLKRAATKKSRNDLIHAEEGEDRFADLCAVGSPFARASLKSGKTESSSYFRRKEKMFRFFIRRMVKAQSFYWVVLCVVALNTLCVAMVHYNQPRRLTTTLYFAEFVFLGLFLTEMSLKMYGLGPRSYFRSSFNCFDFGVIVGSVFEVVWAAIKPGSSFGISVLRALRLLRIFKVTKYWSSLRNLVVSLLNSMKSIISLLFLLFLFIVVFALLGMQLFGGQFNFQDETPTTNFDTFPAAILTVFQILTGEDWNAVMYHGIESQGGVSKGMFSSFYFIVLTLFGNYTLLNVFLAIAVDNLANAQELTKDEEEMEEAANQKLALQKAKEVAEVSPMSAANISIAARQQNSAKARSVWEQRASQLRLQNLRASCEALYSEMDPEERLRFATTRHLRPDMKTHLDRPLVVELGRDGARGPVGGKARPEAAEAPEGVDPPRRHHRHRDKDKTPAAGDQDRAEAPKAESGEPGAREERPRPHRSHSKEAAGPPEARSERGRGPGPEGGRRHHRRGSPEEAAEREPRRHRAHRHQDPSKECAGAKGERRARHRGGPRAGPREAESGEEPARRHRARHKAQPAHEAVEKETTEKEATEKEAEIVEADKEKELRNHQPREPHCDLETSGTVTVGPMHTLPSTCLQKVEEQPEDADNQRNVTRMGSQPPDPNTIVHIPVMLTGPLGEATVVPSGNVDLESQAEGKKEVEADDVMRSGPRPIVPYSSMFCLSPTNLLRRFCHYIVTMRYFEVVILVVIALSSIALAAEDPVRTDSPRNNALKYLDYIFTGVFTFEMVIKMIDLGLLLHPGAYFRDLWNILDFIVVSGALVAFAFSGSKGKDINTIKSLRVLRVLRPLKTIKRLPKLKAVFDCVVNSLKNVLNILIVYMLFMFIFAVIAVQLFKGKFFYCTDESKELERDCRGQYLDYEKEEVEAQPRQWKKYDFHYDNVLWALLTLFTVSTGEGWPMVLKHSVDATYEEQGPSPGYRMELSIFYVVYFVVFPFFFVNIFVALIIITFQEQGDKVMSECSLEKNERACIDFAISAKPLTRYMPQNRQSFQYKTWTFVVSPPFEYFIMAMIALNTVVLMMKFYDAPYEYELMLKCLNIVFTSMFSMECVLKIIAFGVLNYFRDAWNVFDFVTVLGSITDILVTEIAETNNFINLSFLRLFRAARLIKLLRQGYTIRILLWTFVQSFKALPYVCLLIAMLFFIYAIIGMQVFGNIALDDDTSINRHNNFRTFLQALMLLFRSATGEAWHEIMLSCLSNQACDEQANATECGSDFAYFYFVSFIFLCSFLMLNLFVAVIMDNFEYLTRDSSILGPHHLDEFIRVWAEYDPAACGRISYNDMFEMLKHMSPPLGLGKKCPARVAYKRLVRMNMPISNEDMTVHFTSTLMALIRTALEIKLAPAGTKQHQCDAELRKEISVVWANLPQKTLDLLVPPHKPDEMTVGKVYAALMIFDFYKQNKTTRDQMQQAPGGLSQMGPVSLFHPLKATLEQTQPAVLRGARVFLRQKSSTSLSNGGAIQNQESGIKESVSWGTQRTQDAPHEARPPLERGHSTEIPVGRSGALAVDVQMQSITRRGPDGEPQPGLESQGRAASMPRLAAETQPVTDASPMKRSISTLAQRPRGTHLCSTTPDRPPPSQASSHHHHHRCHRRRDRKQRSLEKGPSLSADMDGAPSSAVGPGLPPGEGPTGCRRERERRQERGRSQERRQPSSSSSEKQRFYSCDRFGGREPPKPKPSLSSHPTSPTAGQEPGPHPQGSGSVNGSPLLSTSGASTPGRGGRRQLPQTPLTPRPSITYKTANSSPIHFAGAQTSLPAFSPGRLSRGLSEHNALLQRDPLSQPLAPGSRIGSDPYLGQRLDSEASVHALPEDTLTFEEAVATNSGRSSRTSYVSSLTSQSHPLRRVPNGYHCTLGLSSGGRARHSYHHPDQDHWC
T1 sequence (P54284 whole entry partner): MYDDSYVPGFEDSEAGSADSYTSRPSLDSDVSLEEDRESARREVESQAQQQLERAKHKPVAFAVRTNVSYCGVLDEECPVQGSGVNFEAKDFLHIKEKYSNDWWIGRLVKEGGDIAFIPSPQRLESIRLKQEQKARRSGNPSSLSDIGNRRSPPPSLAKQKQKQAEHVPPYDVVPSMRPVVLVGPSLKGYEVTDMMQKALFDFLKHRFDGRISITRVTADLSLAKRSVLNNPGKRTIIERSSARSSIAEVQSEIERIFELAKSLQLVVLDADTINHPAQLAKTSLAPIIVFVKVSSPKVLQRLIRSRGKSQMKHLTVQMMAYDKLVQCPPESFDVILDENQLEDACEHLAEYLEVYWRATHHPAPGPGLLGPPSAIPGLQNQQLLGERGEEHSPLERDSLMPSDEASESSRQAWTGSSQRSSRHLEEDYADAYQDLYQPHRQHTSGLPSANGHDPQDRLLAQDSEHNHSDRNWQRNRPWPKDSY
T1 sequence (P54289 25-946 partner limits assumed): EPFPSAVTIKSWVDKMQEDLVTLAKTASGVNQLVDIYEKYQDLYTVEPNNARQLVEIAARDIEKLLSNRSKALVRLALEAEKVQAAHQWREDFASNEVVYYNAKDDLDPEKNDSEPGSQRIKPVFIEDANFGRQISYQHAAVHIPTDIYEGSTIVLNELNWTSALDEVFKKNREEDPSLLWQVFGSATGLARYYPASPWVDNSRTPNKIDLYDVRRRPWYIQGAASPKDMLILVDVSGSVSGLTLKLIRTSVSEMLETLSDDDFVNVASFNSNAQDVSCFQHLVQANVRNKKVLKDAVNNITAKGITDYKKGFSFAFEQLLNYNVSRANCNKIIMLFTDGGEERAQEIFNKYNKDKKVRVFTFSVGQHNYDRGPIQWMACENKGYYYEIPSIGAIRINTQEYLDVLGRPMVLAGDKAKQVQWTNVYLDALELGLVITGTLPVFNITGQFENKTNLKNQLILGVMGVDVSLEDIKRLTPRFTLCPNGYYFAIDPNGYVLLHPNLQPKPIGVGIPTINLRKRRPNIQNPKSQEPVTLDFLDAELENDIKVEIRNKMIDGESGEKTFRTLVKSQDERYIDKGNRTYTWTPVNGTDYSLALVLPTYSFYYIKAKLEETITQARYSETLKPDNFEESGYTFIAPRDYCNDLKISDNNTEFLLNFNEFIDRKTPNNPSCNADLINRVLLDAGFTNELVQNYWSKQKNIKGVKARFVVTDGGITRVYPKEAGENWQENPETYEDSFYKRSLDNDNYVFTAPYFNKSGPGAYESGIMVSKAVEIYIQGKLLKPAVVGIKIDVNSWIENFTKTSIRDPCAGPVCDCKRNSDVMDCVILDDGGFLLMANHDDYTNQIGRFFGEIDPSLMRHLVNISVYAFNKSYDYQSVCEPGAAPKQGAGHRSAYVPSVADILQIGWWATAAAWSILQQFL
T1 sequence (P54289 947-1103 partner limits assumed): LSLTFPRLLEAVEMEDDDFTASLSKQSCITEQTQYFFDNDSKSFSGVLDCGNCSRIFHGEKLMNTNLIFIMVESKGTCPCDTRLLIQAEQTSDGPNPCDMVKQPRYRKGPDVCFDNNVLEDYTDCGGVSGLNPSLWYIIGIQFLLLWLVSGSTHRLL
In short: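 IMR-32 cells were differentiated 7–13 days (1 mM dibutyryl cAMP, 2.5 µM BrdU) and Indo-1-loaded. They were preincubated 10 min at 30 °C with compound and 5 µM nitrendipine in HEPES/Tris pH 7.4 HBSS with 0.5% BSA, then KCl/CaCl2-depolarized. The peak-minus-basal 400/490 nm emission ratio gave IC50 by four-parameter logistic fit.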

[3] = K+ depolarization, 5 μM nitrendipine to block L-type channels, read-out: IMR 32 IC50
[4] = 5 μM nitrendipine, Examples 116-140, read-out: IMR 32% of Blockade @

Row | IC50 [2, 3] [µM] | IC50 [2, 4] [µM] | Compound | other results
1 | 0.32 |  | CC(C)CCN(C)[C@@H](CC(C)C)C(=O)N[C@@H](Cc1ccc(OCc2ccccc2)cc1)C(=O)NC(C)(C)C (relative stereo) [Example 7, [S-(R*,R*)]-4-Methyl-2-[methyl-(3-methyl-butyl)-amino]-pentanoic acid [2-(4-benzyloxy-phenyl)-1-tert-butylcarbamoyl-ethyl]-amide] | DBA/2 mice % Protection dose @ 30 mg/kg [1]: 100%
2 | 0.9 |  | CC(C)C[C@@H](C(=O)N[C@@H](Cc1ccc(OCc2ccccc2)cc1)C(=O)NC(C)(C)C)N(C)Cc1ccco1 (relative stereo) [Example 90, [S-(R*,R*)]-2-(Furan-2-ylmethyl-methyl-amino)-4-methyl-pentanoic acid [2-(4-benzyloxy-phenyl)-1-tert-butylcarbamoyl-ethyl]-amide] | DBA/2 mice % Protection dose @ 30 mg/kg [1]: 60%
3 | 2.2 |  | CC(C)C[C@@H](C(=O)N[C@@H](Cc1ccc(OCc2ccccc2)cc1)C(=O)NC(C)(C)C)N(C)CCC(C)O (relative stereo) [Example 97, [S-(R*,R*)]-2-[(3-Hydroxy-butyl)-methyl-amino]-4-methyl-pentanoic acid [2-(4-benzyloxy-phenyl)-1-tert-butylcarbamoyl-ethyl]-amide] | DBA/2 mice % Protection dose @ 30 mg/kg [1]: 40%
4 | 0.04 |  | CC(C)CC(C(=O)NC(Cc1ccc(OCc2ccccc2)cc1)C(=O)NC(C)(C)C)N(C)Cc1ccc(C(C)(C)C)cc1 (stereo not drawn) [Example 13, [S-(R*,R*)]-2-[(4-tert-Butyl-benzyl)-methyl-amino]-4-methyl-pentanoic acid [2-(4-benzyloxy-phenyl)-1-tert-butylcarbamoyl-ethyl]-amide] | DBA/2 mice % Protection dose @ 30 mg/kg [1]: 60%
5 | 0.3 |  | CC(C)CC(C(=O)NC(Cc1ccc(OCc2ccccc2)cc1)C(=O)NC(C)(C)C)N(C)Cc1ccc(F)cc1 (stereo not drawn) [Example 80, [S-(R*,R*)]-2-[(4-Fluoro-benzyl)-methyl-amino]-4-methyl-pentanoic acid [2-(4-benzyloxy-phenyl)-1-tert-butylcarbamoyl-ethyl]-amide] | 
6 | 0.32 |  | CC(C)CC(NC1CCOCC1)C(=O)NC(Cc1ccc(OCc2ccccc2)cc1)C(=O)OC(C)(C)C (stereo not drawn) [Example 85, [S-(R*,R*)]-3-(4-Benzyloxy-phenyl)-2-[4-methyl-2-(tetrahydro-pyran-4-ylamino)-pentanoylamino]-propionic acid tert-butyl ester] | 
7 |  | 18 | CC(C)CC(C(=O)NC(Cc1ccc(OCc2ccccc2)cc1)C(=O)NCCN1CCOCC1)N1CCOCC1 (stereo not drawn) [Example 119, [S-(R*,R*)]-4-Methyl-2-morpholin-4-yl-pentanoic acid [2-(4-benzyloxy-phenyl)-1-(2-morpholin-4-yl-ethylcarbamoyl)-ethyl]-amide] | 
8 |  | 14 | CC(C)CC(C(=O)NC(Cc1ccc(OCc2ccccc2)cc1)C(=O)NCCCn1ccnc1)N1CCOCC1 (stereo not drawn) [Example 121, [S-(R*,R*)]-4-Methyl-2-morpholin-4-yl-pentanoic acid [2-(4-benzyloxy-phenyl)-1-(3-imidazol-1-yl-propylcarbamoyl)-ethyl]-amide] | 
9 |  | 5.1 | CC(C)CC(C(=O)NC(Cc1ccc(OCc2ccccc2)cc1)C(=O)NCCNCCO)N(C)C (stereo not drawn) [Example 140, [S-(R*,R*)]-2-Dimethylamino-4-methyl-pentanoic acid {2-(4-benzyloxy-phenyl)-1-[2-(2-hydroxy-ethylamino)-ethylcarbamoyl]-ethyl}-amide] | 
10 |  | 6.2 | [S-(R*,R*)]-2-Dimethylamino-4-methyl-pentanoic acid [2-(4-benzyloxy-phenyl)-1-(2-hydroxymethylbutan-1-ol)-ethyl]-amide [Example 137] | 
11 |  | 6.5 | [S-(R*,R*)]-4-Methyl-2-(tetrahydropyran-4-yl-amino)-pentanoic acid [2-(4-benzyloxy-phenyl)-1-(2-pyrrolidine-1-yl-ethylcarbamoyl]-amide [Example 130] | 
12 |  | 3.9 | [S-(R*,R*)]-4-Methyl-2-(tetrahydropyran-4-yl-amino)-pentanoic acid [2-(4-benzyloxy-phenyl)-1-(-(2-pyridin-2-yl-ethylcarbamoyl)-ethyl]-amide [Example 128] | 

More lines, now with the values behind:

Row | Compound | IC50 [2, 3] [µM] | IC50 [2, 4] [µM] | other results
13 | CCC(C)N(C)C(CC(C)C)C(=O)NC(Cc1ccc(OCc2ccccc2)cc1)C(=O)NC(C)(C)C (racemic) [Example 103, [S-[R*,R*,(RS)]]-2-(sec-Butyl-methyl-amino)-4-methyl-pentanoic acid [2-(4-benzyloxy-phenyl)-1-tert-butylcarbamoyl-ethyl]-amide] | 1.5 |  | DBA/2 mice % Protection (10 mg/kg) [1]: 100%
14 | CC(C)C[C@@H](C(=O)N[C@@H](Cc1ccc(OCc2ccccc2)cc1)C(=O)NC(C)(C)C)N(C)CC1CCCCC1 (relative stereo) [Example 25, [S-(R*,R*)]-2-(Cyclohexylmethyl-methyl-amino)-4-methyl-pentanoic acid [2-(4-benzyloxy-phenyl)-1-tert-butylcarbamoyl-ethyl]-amide] | 0.67 |  | DBA/2 mice % Protection dose @ 30 mg/kg [1]: 100%
15 | CC(C)CCN(C)[C@@H](CC(C)C)C(=O)N[C@H](Cc1ccc(OCc2ccccc2)cc1)C(=O)NC(C)(C)C (relative stereo) [Example 84, [S-(R*,S*)]-4-Methyl-2-[methyl-(3-methyl-butyl)-amino]-pentanoic acid [2-(4-benzyloxy-phenyl)-1-tert-butylcarbamoyl-ethyl]-amide] | 0.37 |  | DBA/2 mice % Protection (10 mg/kg) [1]: 100%
16 | CC(C)C[C@H](NC1CCCCC1)C(=O)N[C@@H](Cc1ccc(OCc2ccccc2)cc1)C(=O)OC(C)(C)C (relative stereo) [Example 93, [S-(R*,R*)]-3-(4-Benzyloxy-phenyl)-2-(2-cyclohexylamino-4-methyl-pentanoylamino)-propionic acid tert-butyl ester] | 0.2 |  | DBA/2 mice % Protection dose @ 30 mg/kg [1]: 80%
17 | CC(C)CC(NC1CCOCC1)C(=O)NC(Cc1ccc(OCc2ccccc2)cc1)C(=O)NC(C)(C)C (stereo not drawn) [Example 78, [S-(R*,R*)]-4-Methyl-2-(tetrahydro-pyran-4-ylamino)-pentanoic acid [2-(4-benzyloxy-phenyl)-1-tert-butylcarbamoyl-ethyl]-amide] | 1.6 |  | 
18 | CC(C)CCNC(CC(C)C)C(=O)NC(Cc1ccc(OCc2ccccc2)cc1)C(=O)OC(C)(C)C (stereo not drawn) [Example 95, [S-(R*,R*)]-3-(4-Benzyloxy-phenyl)2-[4-methyl-2-(3-methyl-butylamino)-pentanoylamino]-propionic acid tert-butyl ester] | 0.46 |  | 
19 | CC(C)CCN(C)CC(=O)NC(Cc1ccc(OCc2ccccc2)cc1)C(=O)NC(C)(C)C (stereo not drawn) [Example 102, [S-(R*,R*)]-3-(4-Benzyloxy-phenyl)-N-tert-butyl-2-{2-[methyl-(3-methyl-butyl)-amino]-acetylamino}-propionamide] | 1.6 |  | 
20 | CC(C)CCNC(C)(C)C(=O)N[C@@H](Cc1ccc(OCc2ccccc2)cc1)C(=O)NC(C)(C)C [Example 104, (S)-N-[2-(4-Benzyloxy-phenyl)-1-tert-butylcarbamoyl-ethyl]-2-(3-methyl-butylamino)-isobutyramide] | 1.3 |  | 
21 | [S-(R*,R*)]-3-Methyl-2-[methyl-(3-methyl-butyl)-amino]-pentanoic acid [2-(4-benzyloxy-phenyl)-1-tert-butylcarbamoyl-ethyl]-amide [Example 44] |  |  | IMR 32 % of Blockade @ 0.3 μM [2]: 35%; IMR 32 % of Blockade @ 3 μM [2]: 74%
22 | [S-(R*,R*)]-4-Methyl-2-(tetrahydropyran-4-yl-amino)-pentanoic acid [2-(4-benzyloxy-phenyl)-1-(4-hydroxy-piperinylcarbamoyl]-amide [Example 131] |  | 10 | 
